According to patent US7767659B2, “Synthesis of naturally occurring ecteinascidins and related compounds” (Pharma Mar, S.A., priority 2002, dated 2010):
Where two headings read alike, the source gives them in different places.

What was measured:
A-549 = experiment: cells; settings: Homo sapiens, A549, 48 h
Procedure: (§1) This form of the assay employs 96 well cell culture microplates of 9 mm diameter (Faircloth, 1988; Mosmann, 1983). Most of the cell lines are obtained from American Type Culture Collection (ATCC) derived from different human cancer types.
(§2) Cells are maintained in RPMI 1640 10% FBS, supplemented with 0.1 g/l penicillin and 0.1 g/l streptomycin sulfate and then incubated at 37° C., 5% CO2 and 98% humidity. For the experiments, cells were harvested from subconfluent cultures using trypsin and resuspended in fresh medium before plating.
(§3) Cells are seeded in 96 well microtiter plates, at 5×10^3 cells per well in aliquots of 195 μl medium, and they are allowed to attach to the plate surface by growing in drug free medium for 18 hours. Afterward, samples are added in aliquots of 5 μl in a ranging from 10 to 10^−8 μg/ml, dissolved in DMSO/EtOH/PBS (0.5:0.5:99). After 48 hours exposure, the antitumor effect are measured by the SRB methodology: cells are fixed by adding 50 μl of cold 50% (wt/vol) trichloroacetic acid (TCA) and incubating for 60 minutes at 4° C. Plates are washed with deionized water and dried. One hundred μl of SRB solution (0.4% wt/vol in 1% acetic acid) is added to each microtiter well and incubated for 10 minutes at room temperature. Unbound SRB is removed by washing with 1% acetic acid. Plates are air dried and bound stain is solubilzed with Tris buffer. Optical densities are read on a automated spectrophotometric plate reader at a single wavelength of 490 nm.
(§4) The values for mean +/− SD of data from triplicate wells are calculated. Some parameters for cellular responses can be calculated: GI=growth inhibition, TGI=total growth inhibition (cytostatic effect) and LC=cell killing (cytotoxic effect).

HT-29 = experiment: cells; settings: Homo sapiens, HT-29, 48 h
Procedure: as §1, §2, §3, §4

LoVo = experiment: cells; settings: Homo sapiens, LoVo, 48 h; for GI50: read-out: LOVO GI50; for CC50: read-out: LOVO LC50; for IC (TGI): read-out: LOVO TGI
Procedure: as §1, §2, §3, §4

DU-145 = experiment: Inhibition of cells growth by colorimetric assay (SRB); settings: Homo sapiens, DU-145, 48 h
Procedure: as §1, §2, §3, §4

HeLa-APL = experiment: as above; settings: Homo sapiens, 48 h; for GI50: read-out: HELA-APL GI50; for CC50: read-out: HELA-APL LC50; for IC (TGI): read-out: HELA-APL TGI
Procedure: as §1, §2, §3, §4

HeLa = experiment: as above; settings: Homo sapiens, HeLa, 48 h; for GI50: read-out: HELA GI50; for CC50: read-out: HELA LC50; for IC (TGI): read-out: HELA TGI
Procedure: as §1, §2, §3, §4

IGROV-1 = experiment: as above; settings: Homo sapiens, IGROV-1, 48 h; for GI50: read-out: IGROV GI50; for CC50: read-out: IGROV LC50; for IC (TGI): read-out: IGROV TGI
Procedure: as §1, §2, §3, §4

IGROV-ET = experiment: as above; settings: Homo sapiens, 48 h; for GI50: read-out: IGROV-ET GI50; for CC50: read-out: IGROV-ET LC50; for IC (TGI): read-out: IGROV-ET TGI
Procedure: as §1, §2, §3, §4

K-562 = experiment: as above; settings: Homo sapiens, K562, 48 h; for GI50: read-out: K562 GI50; for CC50: read-out: K562 LC50; for IC (TGI): read-out: K562 TGI
Procedure: as §1, §2, §3, §4

LNCaP = experiment: as above; settings: Homo sapiens, LNCaP, 48 h
Procedure: as §1, §2, §3, §4

LoVo-Dox = experiment: as above; settings: Homo sapiens, 48 h; for GI50: read-out: LOVO-DOX GI50; for CC50: read-out: LOVO-DOX LC50; for IC (TGI): read-out: LOVO-DOX TGI
Procedure: as §1, §2, §3, §4

PANC-1 = experiment: as above; settings: Homo sapiens, PANC-1, 48 h; for GI50: read-out: PANC-1 GI50; for CC50: read-out: PANC-1 LC50; for IC (TGI): read-out: PANC-1 TGI
Procedure: as §1, §2, §3, §4

SK-BR-3 = experiment: as above; settings: Homo sapiens, SK-BR-3, 48 h; for GI50: read-out: SK-BR3 GI50; for CC50: read-out: SK-BR3 LC50; for IC (TGI): read-out: SK-BR3 TGI
Procedure: as §1, §2, §3, §4

SK-MEL-28 = experiment: as above; settings: Homo sapiens, SK-MEL-28, 48 h
Procedure: as §1, §2, §3, §4

C=CCN1[C@@H]2c3c(cc(C)c(OC)c3OC(=O)OC(C)(C)C)C[C@H]1[C@H](C#N)N1C2[C@@H]2SC[C@]3(NCCc4cc(OC(=O)OC(C)(C)C)c(OC)cc43)C(=O)OC[C@H]1c1c3c(c(C)c(OC(C)=O)c12)OCO3 (stereo partly drawn) [compound 45]
GI50 (A-549; read-out: A549 GI50): 0.162 µM | CC50 (A-549; read-out: A549 LC50): 1.5 µM | IC (TGI) (A-549; read-out: A549 TGI): 0.413 µM | GI50 (HT-29; read-out: HT29 GI50): 0.0836 µM | CC50 (HT-29; read-out: HT29 LC50): 10 µM | IC (TGI) (HT-29; read-out: HT29 TGI): 1.41 µM | GI50 (LoVo): 0.13 µM | CC50 (LoVo): 0.614 µM | IC (TGI) (LoVo): 0.283 µM | GI50 (DU-145; read-out: DU145 GI50): 0.0359 µM | CC50 (DU-145; read-out: DU145 LC50): 10 µM | IC (TGI) (DU-145; read-out: DU145 TGI): 0.103 µM | GI50 (HeLa-APL): 0.0284 µM | CC50 (HeLa-APL): 0.783 µM | IC (TGI) (HeLa-APL): 0.121 µM | GI50 (HeLa): 0.0164 µM | CC50 (HeLa): 0.0797 µM | IC (TGI) (HeLa): 0.0362 µM | GI50 (IGROV-1): 0.0569 µM | CC50 (IGROV-1): 10 µM | IC (TGI) (IGROV-1): 0.392 µM | GI50 (IGROV-ET): 0.0865 µM | CC50 (IGROV-ET): 10 µM | IC (TGI) (IGROV-ET): 0.497 µM | GI50 (K-562): 0.0176 µM | CC50 (K-562): 10 µM | IC (TGI) (K-562): 0.15 µM | GI50 (LNCaP; read-out: LNCAP GI50): 0.00383 µM | CC50 (LNCaP; read-out: LNCAP LC50): 0.0515 µM | IC (TGI) (LNCaP; read-out: LNCAP TGI): 0.0173 µM | GI50 (LoVo-Dox): 0.479 µM | CC50 (LoVo-Dox): 10 µM | IC (TGI) (LoVo-Dox): 3.14 µM | GI50 (PANC-1): 0.229 µM | CC50 (PANC-1): 10 µM | IC (TGI) (PANC-1): 1.24 µM | GI50 (SK-BR-3): 0.00283 µM | CC50 (SK-BR-3): 0.133 µM | IC (TGI) (SK-BR-3): 0.00756 µM | GI50 (SK-MEL-28; read-out: MEL-28 GI50): 0.117 µM | CC50 (SK-MEL-28; read-out: MEL-28 LC50): 0.689 µM | IC (TGI) (SK-MEL-28; read-out: MEL-28 TGI): 0.285 µM

COc1ccc2[nH]c3c(c2c1)CCN[C@]31CS[C@@H]2c3c(OC(C)=O)c(C)c4c(c3[C@H](COC1=O)N1C2[C@@H]2N[C@@H](Cc3cc(C)c(OC)c(O)c32)[C@@H]1O)OCO4 (stereo partly drawn) [compound 64]
GI50 (A-549; read-out: A549 GI50): 0.00519 µM | CC50 (A-549; read-out: A549 LC50): 1.12 µM | IC (TGI) (A-549; read-out: A549 TGI): 0.0366 µM | GI50 (HT-29; read-out: HT29 GI50): 0.00358 µM | CC50 (HT-29; read-out: HT29 LC50): 13 µM | IC (TGI) (HT-29; read-out: HT29 TGI): 0.0132 µM | GI50 (LoVo): 0.00415 µM | CC50 (LoVo): 12.5 µM | IC (TGI) (LoVo): 0.0103 µM | GI50 (DU-145; read-out: DU145 GI50): 0.00289 µM | CC50 (DU-145; read-out: DU145 LC50): 13 µM | IC (TGI) (DU-145; read-out: DU145 TGI): 0.153 µM | GI50 (HeLa-APL): 0.00239 µM | CC50 (HeLa-APL): 0.00963 µM | IC (TGI) (HeLa-APL): 0.0048 µM | GI50 (HeLa): 0.0024 µM | CC50 (HeLa): 0.01 µM | IC (TGI) (HeLa): 0.00489 µM | GI50 (IGROV-1): 0.00178 µM | CC50 (IGROV-1): 0.0109 µM | IC (TGI) (IGROV-1): 0.00441 µM | GI50 (IGROV-ET): 0.0348 µM | CC50 (IGROV-ET): 8.3 µM | IC (TGI) (IGROV-ET): 0.171 µM | GI50 (K-562): 0.00086 µM | CC50 (K-562): 0.812 µM | IC (TGI) (K-562): 0.00471 µM | GI50 (LNCaP; read-out: LNCAP GI50): 0.00102 µM | CC50 (LNCaP; read-out: LNCAP LC50): 0.00612 µM | IC (TGI) (LNCaP; read-out: LNCAP TGI): 0.00267 µM | GI50 (LoVo-Dox): 0.32 µM | CC50 (LoVo-Dox): 13 µM | IC (TGI) (LoVo-Dox): 2.76 µM | GI50 (PANC-1): 0.00246 µM | CC50 (PANC-1): 13 µM | IC (TGI) (PANC-1): 0.0109 µM | GI50 (SK-BR-3): 0.000717 µM | CC50 (SK-BR-3): 13 µM | IC (TGI) (SK-BR-3): 0.15 µM | GI50 (SK-MEL-28; read-out: MEL-28 GI50): 0.00265 µM | CC50 (SK-MEL-28; read-out: MEL-28 LC50): 0.0205 µM | IC (TGI) (SK-MEL-28; read-out: MEL-28 TGI): 0.00624 µM

CCC(=O)NC1CS[C@@H]2c3c(OC(C)=O)c(C)c4c(c3[C@H](COC1=O)N1C2[C@@H]2N[C@@H](Cc3cc(C)c(OC)c(O)c32)[C@@H]1C#N)OCO4 (stereo partly drawn) [compound 33]
GI50 (A-549; read-out: GI50 A549): 0.0262 µM | CC50 (A-549; read-out: LC50 A549): 0.149 µM | IC (TGI) (A-549; read-out: TGI A549): 0.0624 µM | GI50 (HT-29; read-out: GI50 HT29): 0.0173 µM | CC50 (HT-29; read-out: LC50 HT29): 9.81 µM | IC (TGI) (HT-29; read-out: TGI HT29): 0.271 µM | GI50 (LoVo): 0.0199 µM | CC50 (LoVo): 0.145 µM | IC (TGI) (LoVo): 0.0536 µM | GI50 (DU-145; read-out: GI50 DU145): 0.00802 µM | CC50 (DU-145; read-out: LC50 DU145): 4.41 µM | IC (TGI) (DU-145; read-out: TGI DU145): 0.0156 µM | GI50 (HeLa-APL): 0.00524 µM | CC50 (HeLa-APL): 0.115 µM | IC (TGI) (HeLa-APL): 0.0191 µM | GI50 (HeLa): 0.00502 µM | CC50 (HeLa): 0.0969 µM | IC (TGI) (HeLa): 0.0161 µM | GI50 (IGROV-1): 0.0985 µM | CC50 (IGROV-1): 1.58 µM | IC (TGI) (IGROV-1): 0.426 µM | GI50 (K-562): 0.00549 µM | CC50 (K-562): 2.83 µM | IC (TGI) (K-562): 0.159 µM | GI50 (LNCaP; read-out: GI50 LNCAP): 0.00286 µM | CC50 (LNCaP; read-out: LC50 LNCAP): 0.0111 µM | IC (TGI) (LNCaP; read-out: TGI LNCAP): 0.00564 µM | GI50 (LoVo-Dox): 0.367 µM | CC50 (LoVo-Dox): 5.9 µM | IC (TGI) (LoVo-Dox): 0.94 µM | GI50 (PANC-1): 0.0199 µM | CC50 (PANC-1): 4.51 µM | IC (TGI) (PANC-1): 0.122 µM | GI50 (SK-BR-3): 0.00483 µM | CC50 (SK-BR-3): 0.385 µM | IC (TGI) (SK-BR-3): 0.0139 µM | GI50 (SK-MEL-28; read-out: GI50 MEL-28): 0.0128 µM | CC50 (SK-MEL-28; read-out: LC50 MEL-28): 0.0979 µM | IC (TGI) (SK-MEL-28; read-out: TGI MEL-28): 0.0367 µM
